{"source": "patent US20110251158A1", "about": "“FULLERENE THERAPIES FOR INFLAMMATION AND INHIBITION OF BUILD-UP OF ARTERIAL PLAQUE” (Luna Innovations Incorporated, priority 2008, published 2011)", "key": {"[1]": {"test": "Solubility", "assay_type": "physicochemical"}, "[2]": {"test_system": "U937 monocyte cells", "conditions": "for % Viability: human", "experimental": "The human monocytic cell line U937 was obtained from the American Type Culture Collection (Manassas, Va., USA). Cells are maintained in RPMI 1640 media enriched with 10% heat-inactivated FBS, 2 mM L-Glutamine, 10 mM HEPES buffer, 0.1 mM non-essential Amino Acids, 1% antibiotic/antimycotic, and 50 uM beta mercaptoethanol at 37° C., 6% CO2."}}, "note": "Like-named read-outs stand apart in the source and are kept apart here.", "data": [{"molecule": "C70-Tetrapyridine", "values": [{"measurement": "solubility", "setting": "[1]; DI water and phosphate buffered saline", "value": "> 2000", "unit": "µg/mL"}]}, {"molecule": "O=C1O[C@H]([C@@H](O)CO)C(O)=C1O", "note": "[Vitamin C]", "values": [{"measurement": "toxic effects on the viability of serum-starved cell", "setting": "[2]", "value": "did not have toxic effects"}, {"measurement": "% Viability", "setting": "[2]; 3 day, 0.67 uM", "value": "98.8% ± 0.06"}, {"measurement": "% Viability", "setting": "[2]; 3 day, 6.7 uM", "value": "97.4% ± 1.86"}, {"measurement": "% Viability", "setting": "[2]; 3 day, 67 uM", "value": "98.2% ± 0.67"}, {"measurement": "% Viability", "setting": "[2]; 6 day, 0.67 uM", "value": "93.8% ± 1.09"}, {"measurement": "% Viability", "setting": "[2]; 6 day, 6.7 uM", "value": "91.2% ± 0.33"}, {"measurement": "% Viability", "setting": "[2]; 6 day, 67 uM", "value": "90.9% ± 0.07"}, {"measurement": "% Viability", "setting": "[2]; 9 day, 0.67 uM", "value": "60.9% ± 1.13"}, {"measurement": "% Viability", "setting": "[2]; 9 day, 6.7 uM", "value": "61.8% ± 1.10"}, {"measurement": "% Viability", "setting": "[2]; 9 day, 67 uM", "value": "60.7% ± 0.28"}]}, {"molecule": "C70-Tetraphosphate", "values": [{"measurement": "dissolution in aqueous solution", "setting": "[1]; slightly basic aqueous solution, pH adjusted to 7.4", "value": "remained dissolved"}]}, {"molecule": "C70-(DMAE)4", "values": [{"measurement": "solubility in buffer", "setting": "[1]; buffer", "value": "moderate solubility"}]}]}
